Data published in publication PMC9030932, “Development of Dibenzothiazepine Derivatives as Multifunctional Compounds for Neuropathic Pain” (Pharmaceuticals, 2022).
“Also recorded” adds a separate entry of the source. Read-outs that look alike come from different tables or passages of the source. Marks after values point to notes of the source that are not given here.

How the values were obtained:
rats = assay: Behavioral responses: motor functions (righting, placing/stepping reflexes), pinna and corneal reflexes after intrathecal administration; type: in vivo, rat; conditions: highest doses, examined for 3 h
Description: Motor functions were assessed by examining righting and placing/stepping reflexes. […] The […] was evoked by the rat drawing the dorsum of either hind paw across the edge of a table. Normally, rats attempt to place a paw into a position that enables walking. The pinna and corneal reflexes were evoked by stimulating the ear canal or cornea, respectively, with a string. Normally, rats spontaneously shake their heads or blink. Normality of behavior was classified as present or absent. To evaluate the behavioral changes induced by compounds 12 and 17, additional rats were examined for 3 h after intrathecal administration of the highest doses of the agents used. The motor function and pinna and corneal reflexes were normal after intrathecal administration of compounds 12 and 17 at the highest doses. Overt abnormal behavioral changes were not observed.

[1] = target: human norepinephrine transporter (hNET) (Homo sapiens, UniProt P23975); assay: Neurotransmitter transporter uptake assay, HEK-hNET; type: cell-based
[2] = In vitro metabolic stability, human; type: in vitro ADME; conditions: for in vitro metabolic stability: S9 microsomal fraction, 30 min, Table S1; for recovery at 30 min, 1 µM: human, pH 7.4, % remaining after 30 min incubation with S9 microsomal fraction
Description: (§1) Experimental details for Biology […]
(§2) Microsomal stability. The metabolic stability of compounds was evaluated in rat liver microsomes (RLM). Microsomes (0.5 mg/ml) and test compound (1 µM) in 100 mM potassium phosphate buffer (pH 7.4) were preincubated with shaking (100 rpm) for 5 min at 37 °C. The metabolic reaction was initiated by the addition of an NADPH generating system (60 mM potassium phosphate buffer pH 7.4, 1.3 mM NADP, 3.3 mM glucose-6-phosphate, 0.3 µL glucose-6-phosphate dehydrogenase (0.4 U/mL), and 3.3 mM magnesium chloride) and incubated at 37 °C. Aliquots of 100 µL were withdrawn at 0, 10, 20, 30 and 60 min, and 2 volumes of ice-cold acetonitrile (ACN) were added to terminate the reaction. After mixing by vortex and centrifugation (14000 rpm) for 15 min at 4 °C, the supernatant was transferred to liquid chromatography vials and analyzed by an LC-MS/MS system.
(§3) Table S1. In vitro metabolic stability of selected compounds.
(§4) Compounds Human Rat Mouse […]
(§5) a% remaining after 30 min incubation with S9 microsomal fraction.

[3] = target: T1, human μ-opioid receptor (OPRM1) (Homo sapiens, UniProt P35372); assay: Intracellular calcium mobilization (FLIPR Tetra), HEK-hMOR agonism; type: cell-based; conditions: for agonistic activity at the μ-opioid receptor: compared to DAMGO
T1 construct: host or cells: HEK293 (constitutive expression)

hOPRM1 receptor = target: T2, hOPRM1 receptor (Homo sapiens, UniProt P35372); assay: PathHunter CHO-K1 OPRM1 β-arrestin recruitment assay; type: cell-based
T2 construct: host or cells: CHO-K1

[4] = target: human serotonin transporter (hSERT) (Homo sapiens, UniProt P31645); assay: Neurotransmitter transporter uptake assay, HEK-hSERT; type: cell-based
[5] = target: T3, human κ-opioid receptor (OPRK1) (Homo sapiens, UniProt P41145); assay: Intracellular calcium mobilization (FLIPR Tetra), HEK-hKOR agonism; type: cell-based; conditions: for agonistic activity at the κ-opioid receptor: HEK-hKOR calcium mobilization; for activation at 10 µM: read-out: % Stimulation at 10 μM, OPRK1 Agonism against DynorphinA (370 nM)
T3 construct: host or cells: HEK293 (constitutive expression)
Description: Intracellular calcium mobilization was measured by using FLIPR Tetra System (Molecular Devices, Sunnyvale, CA, USA) in accordance with manufacturer’s instruction. […] Subsequently, the plate was transferred to the FLIPR tetra system for treating 50 μL of the 5× compounds diluted in loading buffer and reading intracellular calcium mobilization. The final concentration of DMSO was 0.1%. […] A dose response curve was generated with the changes in Relative Fluorescence Units (∆RFU) versus Log10 dose.
Experimental details for Biology
Cell culture. HEK293 cells stably expressing human DA transporter (HEK-hDAT), human NE transporter (HEK-hNET) and human serotonin transporter (HEK-hSERT) were kindly provided by Professor Bryan Roth (University of North Carolina at Chapel Hill). And HEK293 cells constitutively expressing human κ- or μ- opioid receptor (HEK-hKOR_NM000912 or HEK-hMOR_NM000914) were constructed by Professor Ki Duk Park (in Korea Institute of Science […]
Europins DiscoveRx (Fremont, CA, USA). Cells were mainta ined in Dulbecco's modified Eagle's medium (HyClone, Logan, UT, USA) supplemented with 10%(v/v) fetal bovine serum (FBS, HyClone, Logan, UT, USA), penicillin (100 U/mL), and streptomycin (100 μg/mL) in the […]
for HEK-hDAT, HEK-hNET, HEK-hSERT, HEK-hKOR and HEK-hMOR respectively) in a humidified 5% CO2 incubator at 37 °C. In case of both HEK-hKOR and HEK-hMOR, cells were additionally maintained in 0.2 mg/mL hygromycin B, 1 μg/mL puromycin B, 1× non-essential amino acids. The cells were subcultured every 3-4 days. […]

[6] = In vitro metabolic stability, rat; type: in vitro ADME; conditions: pH 7.4, % remaining after 30 min incubation with S9 microsomal fraction
Description: as §1, §2, §3, §4, §5

[7] = In vitro metabolic stability, mouse; type: in vitro ADME; conditions: pH 7.4, % remaining after 30 min incubation with S9 microsomal fraction
Description: as §1, §2, §3, §4, §5

[8] = test system: spinal-nerve-ligated neuropathic pain rats; assay: Spinal nerve ligation (SNL) neuropathic pain model, von Frey paw withdrawal threshold, intrathecal; type: in vivo, rat; conditions: for maximum possible effect (MPE): highest dose (12: 100 μg; 17: 30 μg); for effect on paw withdrawal threshold (PWT) / allodynia: vs vehicle
Description: Adult male Sprague-Dawley rats weighing 150–180 g each were used. The animals were housed in a room with a constant temperature of 22–23 °C and an alternating 12-h light/dark cycle, with unrestricted access to food and water. Implantation of intrathecal catheters was performed for drug administration under sevoflurane anesthesia, as described previously. Seven days of recovery were allowed after surgery before the use of catheterized rats in the experiments. Spinal nerve-ligated neuropathic pain was induced by tightly ligating the left L5 and L6 spinal nerves, as described previously. Only rats showing allodynia after either spinal nerve ligation (withdrawal threshold < 4 g) were studied. The von Frey test was used to determine the 50% probability paw withdrawal threshold (PWT), using the up and down method, in which a positive response was defined as brisk withdrawal or paw flinching during or immediately after application of a filament. On experimentation days (12 days after SNL), rats were acclimatized in a box with a wire mesh floor for at least 20 min before being randomly allocated to one of the experimental groups. All experiments were carried out by an observer who was blind to the treatments. To investigate the effects of 12 (30 or 100 μg) and 17 (10 or 30 μg), it was supplied intrathecally following post-injury baseline PWT determination in rats with either spinal nerve-ligated neuropathic pain. Withdrawal thresholds were determined at 15, 30, 60, 90, 120, 150, and 180 min after intrathecal administration.
All data are expressed as means ± SEM. The time-response data are presented as the withdrawal threshold in grams. The dose-response data are presented as a percentage of the maximum possible effect (%MPE): %MPE = ((post-drug threshold−post-injury baseline threshold)/(cutoff threshold−post-injury baseline threshold)) × 100. Time and dose-response data were analyzed by a one-way and two-way repeated measures analysis of variance (ANOVA), with a Bonferroni’s post hoc test. A p-value < 0.05 was considered statistically significant.

[9] = target: human dopamine transporter (hDAT) (Homo sapiens, UniProt Q01959); assay: Neurotransmitter transporter uptake assay, HEK-hDAT; type: cell-based
hMOR = test system: hMOR; set-up: method as in earlier work; conditions: ref 21 (Gassaway et al.); cited from earlier work
mMOR = test system: mMOR; set-up: method as in earlier work; conditions: ref 21 (Gassaway et al.); cited from earlier work

Chain of human serotonin transporter (hSERT) (P31645 whole entry): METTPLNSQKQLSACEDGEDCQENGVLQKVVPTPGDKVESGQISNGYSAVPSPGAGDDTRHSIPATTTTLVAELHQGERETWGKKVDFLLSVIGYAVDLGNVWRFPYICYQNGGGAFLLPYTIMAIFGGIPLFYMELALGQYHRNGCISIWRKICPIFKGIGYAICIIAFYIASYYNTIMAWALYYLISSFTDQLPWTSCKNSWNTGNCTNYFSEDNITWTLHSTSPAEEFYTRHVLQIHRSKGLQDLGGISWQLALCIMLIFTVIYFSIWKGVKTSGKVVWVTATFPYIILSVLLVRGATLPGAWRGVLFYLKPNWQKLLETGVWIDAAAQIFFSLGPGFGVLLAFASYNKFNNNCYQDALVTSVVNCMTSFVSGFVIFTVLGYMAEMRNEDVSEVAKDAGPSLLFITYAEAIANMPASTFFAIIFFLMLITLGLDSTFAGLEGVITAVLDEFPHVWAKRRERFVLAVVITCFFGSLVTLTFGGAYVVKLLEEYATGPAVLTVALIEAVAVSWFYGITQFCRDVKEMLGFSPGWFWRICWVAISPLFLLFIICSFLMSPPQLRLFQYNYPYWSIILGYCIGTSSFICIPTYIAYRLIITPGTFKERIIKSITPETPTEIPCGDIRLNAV
T3 sequence (P41145 whole entry): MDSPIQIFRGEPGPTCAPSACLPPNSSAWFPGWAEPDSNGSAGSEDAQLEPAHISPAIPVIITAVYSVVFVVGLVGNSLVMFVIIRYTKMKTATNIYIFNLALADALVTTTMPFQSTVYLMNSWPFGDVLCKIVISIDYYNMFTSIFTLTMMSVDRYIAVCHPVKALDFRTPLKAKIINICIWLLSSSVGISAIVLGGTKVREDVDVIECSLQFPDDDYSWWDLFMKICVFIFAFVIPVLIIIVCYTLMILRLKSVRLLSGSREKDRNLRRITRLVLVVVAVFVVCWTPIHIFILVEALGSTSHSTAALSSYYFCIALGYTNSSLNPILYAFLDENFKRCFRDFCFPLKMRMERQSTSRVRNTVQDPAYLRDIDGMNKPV
T2 sequence (P35372 whole entry): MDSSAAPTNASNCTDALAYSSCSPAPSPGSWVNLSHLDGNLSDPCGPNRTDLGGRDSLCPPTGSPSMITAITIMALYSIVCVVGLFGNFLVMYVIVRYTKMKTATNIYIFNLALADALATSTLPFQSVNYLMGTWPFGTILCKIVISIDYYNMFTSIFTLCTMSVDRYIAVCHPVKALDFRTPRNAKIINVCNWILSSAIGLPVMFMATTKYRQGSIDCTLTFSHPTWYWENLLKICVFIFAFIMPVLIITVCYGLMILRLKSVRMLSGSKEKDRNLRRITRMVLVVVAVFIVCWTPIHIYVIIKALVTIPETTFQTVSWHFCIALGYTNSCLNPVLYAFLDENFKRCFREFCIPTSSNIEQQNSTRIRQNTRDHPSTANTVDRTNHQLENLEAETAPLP
T1 sequence (P35372 whole entry): as above
Chain of human norepinephrine transporter (hNET) (P23975 whole entry): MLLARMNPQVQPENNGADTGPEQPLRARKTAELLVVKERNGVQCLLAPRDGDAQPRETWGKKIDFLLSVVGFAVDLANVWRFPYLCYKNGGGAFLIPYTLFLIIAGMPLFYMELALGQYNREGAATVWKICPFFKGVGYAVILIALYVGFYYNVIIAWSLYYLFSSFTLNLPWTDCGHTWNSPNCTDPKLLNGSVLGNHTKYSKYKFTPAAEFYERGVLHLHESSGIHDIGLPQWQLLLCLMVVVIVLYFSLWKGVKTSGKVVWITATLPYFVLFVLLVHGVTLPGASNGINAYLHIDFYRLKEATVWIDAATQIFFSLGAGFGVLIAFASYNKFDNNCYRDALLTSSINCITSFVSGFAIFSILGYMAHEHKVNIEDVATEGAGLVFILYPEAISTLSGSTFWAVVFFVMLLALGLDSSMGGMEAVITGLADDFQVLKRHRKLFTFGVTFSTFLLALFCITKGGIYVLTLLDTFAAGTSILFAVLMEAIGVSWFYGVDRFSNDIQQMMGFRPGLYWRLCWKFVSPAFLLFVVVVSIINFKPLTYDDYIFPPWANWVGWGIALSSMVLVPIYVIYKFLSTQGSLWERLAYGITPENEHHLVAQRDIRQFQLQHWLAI
Chain of human dopamine transporter (hDAT) (Q01959 whole entry): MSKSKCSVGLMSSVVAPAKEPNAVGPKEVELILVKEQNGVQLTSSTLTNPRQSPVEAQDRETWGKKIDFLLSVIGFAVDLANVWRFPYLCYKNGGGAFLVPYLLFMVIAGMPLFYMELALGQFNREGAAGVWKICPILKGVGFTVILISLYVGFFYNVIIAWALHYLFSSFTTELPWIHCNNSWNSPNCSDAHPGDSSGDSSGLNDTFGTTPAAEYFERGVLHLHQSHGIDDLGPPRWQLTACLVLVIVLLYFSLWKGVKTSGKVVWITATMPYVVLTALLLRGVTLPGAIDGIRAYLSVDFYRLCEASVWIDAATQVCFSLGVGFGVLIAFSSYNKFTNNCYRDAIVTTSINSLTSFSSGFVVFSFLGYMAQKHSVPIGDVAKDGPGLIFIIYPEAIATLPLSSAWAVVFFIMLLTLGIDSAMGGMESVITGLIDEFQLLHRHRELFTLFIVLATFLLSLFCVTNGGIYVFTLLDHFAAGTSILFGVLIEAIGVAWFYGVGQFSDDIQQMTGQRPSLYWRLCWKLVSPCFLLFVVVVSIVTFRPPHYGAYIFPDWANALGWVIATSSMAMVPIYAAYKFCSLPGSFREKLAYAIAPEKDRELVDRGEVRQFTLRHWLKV

| Structure (SMILES) | motor function and pinna and corneal reflexes (rats) | in vitro metabolic stability [2] | recovery at 30 min, 1 µM [2] [%] | EC50 [3] [nM] | agonistic activity at the μ-opioid receptor ([3]; HEK-hMOR calcium mobilization) | EC50 (hOPRM1 receptor) [nM] | agonistic activity at the κ-opioid receptor [5] | activation at 10 µM [5] [%] | recovery at 30 min, 1 µM [6] [%] | recovery at 30 min, 1 µM [7] [%] | maximum possible effect (MPE) [8] [%] | effect on paw withdrawal threshold (PWT) / allodynia [8] | IC50 [9] [nM] | other results |
| --- | --- | --- | --- | --- | --- | --- | --- | --- | --- | --- | --- | --- | --- | --- |
| CN1c2ccccc2C(NCCCCCCC(=O)NCCc2c[nH]c3ccc(O)cc23)c2ccc(Cl)cc2S1(=O)=O (centres unmarked) [Compound 12, 7-((3-chloro-6-methyl-5,5-dioxido-6,11-dihydrodibenzo[c,f][1,2]thiazepin-11-yl)amino)-N-(2-(5-hydroxy-1H-indol-3-yl)ethyl)heptanamide] | normal | extremely low | 5 | 1200 ± 244 | partial agonisms | 134 ± 12 | did not show agonistic activities | < 10 | 6 | 5 | 73 | dose-dependent increase in the withdrawal threshold; also recorded: increased the paw withdrawal threshold (PWT) compared to the vehicle | 9660 ± 1000 | inhibition at 10 µM ([1]; 10 μM, HEK-hNET, mean ± SEM, n = 3–6, read-out: % Inhibition at 10 μM hNET): 30.1 ± 0.87%; IC50 [4]: 258 ± 57 nM; melting point: 92 to 95 °C |
| CN1c2ccccc2C(NCCCCCCCNCCc2c[nH]c3ccc(O)cc23)c2ccc(Cl)cc2S1(=O)=O (centres unmarked) [Compound 17, 3-chloro-11-((7-((2-(5-hydroxy-1H-indol-3-yl)ethyl)amino)heptyl)amino)-6-methyl-6,11-dihydrodibenzo[c,f][1,2]thiazepine 5,5-dioxide] | normal | extremely low | 0 | 384 ± 25 | partial agonisms | 1560 ± 195 | no influence; also recorded: did not show agonistic activities | < 10 | 1 | 1 | 83 | increased mechanical withdrawal threshold compared to vehicle; also recorded: significantly reduced allodynia; also recorded: increased the PWT; also recorded: showed antiallodynic effects at the spinal level | 2010 ± 650 | IC50 [1]: 154 ± 7 nM; fold increase in Ca2+ efflux in HEK-hMOR ([3]; HEK-hMOR): 5.9 fold; β-arrestin recruitment (hOPRM1 receptor; CHO-K1 OPRM1): lower levels of β-arrestin recruitment than compound 12; IC50 ([4]; HEK-hSERT, neurotransmitter uptake, mean ± SEM, n = 3–6, read-out: IC50 hSERT): 70 ± 9 nM; fold higher hSERT inhibitory activity than compound 12 ([4]; IC50 ratio vs compound 12): 3 fold |
| CN1c2ccccc2C(NCCCCCCC(=O)O)c2ccc(Cl)cc2S1(=O)=O (centres unmarked) [Tianeptine, reference compound] | – | – | – | – | did not show appreciable biological activities | > 5000 | did not show appreciable biological activities | < 10 | – | – | – | – | – | % Stimulation at 10 μM, OPRM1 Agonism against DAMGO (3.9 μM) ([3]; 10 μM, HEK-hMOR calcium mobilization, normalized to Emax of DAMGO at 3.9 μM): <10% ^b; EC50 (hMOR): 194 nM; EC50 (mMOR): 641 nM |
